According to US11246929B2, “Combination of a protein kinase inhibitor and an additional chemotherapeutic agent” (Merck Patent GmbH, priority 2016, dated 2022):

Columns and labels:
Experiment in all cases: SRB growth inhibition, 93 cell lines panel
Type in all cases: cell-based
NCIH82 = conditions: Homo sapiens, NCI-H82; NCIH82, lung; read-out: GI50 of etoposide (±Compound 1)
Method: (§1) 90 μl of cells, after a 48-hour pre-growth period, were treated by mixing with 10 μl of the compound-containing media (resulting in a final DMSO concentration of 0.1%).
(§2) This is the drug concentration causing a 50% reduction compared to the net protein increase in control cells during the drug incubation period. In other words, G150 is IC50 corrected for time zero. […] TGI was calculated from Ti=Tz. […] It was calculated as 100×[(Ti−Tz)/Tz]=−50.

MDAMB468 = conditions: Homo sapiens, MDA-MB-468; MDAMB468, breast; read-out: GI50 of etoposide (±Compound 1)
Method: as §1, §2

PC3 = conditions: Homo sapiens, PC-3; PC3, prostate; read-out: GI50 of etoposide (±Compound 1)
Method: as §1, §2

SU-DHL-6 = conditions: Homo sapiens; SU-DHL-6, hematological; read-out: GI50 of etoposide (±Compound 1)
Method: as §1, §2

ASPC1 = conditions: Homo sapiens; ASPC1, pancreas; read-out: GI50 of etoposide (±Compound 1)
Method: as §1, §2

SKLMS1 = conditions: Homo sapiens, SK-LMS-1; SKLMS1, uterus; read-out: GI50 of etoposide (±Compound 1)
Method: as §1, §2

COLO678 = conditions: Homo sapiens, COLO-678; COLO678, colon; read-out: GI50 of etoposide (±Compound 1)
Method: as §1, §2

HT1080 = conditions: Homo sapiens, HT-1080; HT1080, connective tissue; read-out: GI50 of etoposide (±Compound 1)
Method: as §1, §2

15O31 = conditions: 15O31, kidney; read-out: GI50 of etoposide (±Compound 1)
Method: as §1, §2

CALU6 = conditions: Homo sapiens, Calu-6; CALU6, lung; read-out: GI50 of etoposide (±Compound 1)
Method: as §1, §2

BXPC3 = conditions: Homo sapiens, BXPC-3; BXPC3, pancreas; read-out: GI50 of etoposide (±Compound 1)
Method: as §1, §2

HCT116 = conditions: Homo sapiens, HCT-116; HCT116, colon; read-out: GI50 of etoposide (±Compound 1)
Method: as §1, §2

CASKI = conditions: Homo sapiens, Ca-Ski, cervix, read-out: GI50 of etoposide (±Compound 1)
Method: as §1, §2

NCIH460 = conditions: Homo sapiens, NCI-H460; NCIH460, lung; read-out: GI50 of etoposide (±Compound 1)
Method: as §1, §2

L-363 = conditions: Homo sapiens; L-363, hematological; read-out: GI50 of etoposide (±Compound 1)
Method: as §1, §2

BT20 = conditions: Homo sapiens, BT-20; BT20, breast; read-out: GI50 of etoposide (±Compound 1)
Method: as §1, §2

A375 = conditions: Homo sapiens, A-375; A375, skin; read-out: GI50 of etoposide (±Compound 1)
Method: as §1, §2

152OS = conditions: bone, read-out: GI50 of etoposide (±Compound 1)
Method: as §1, §2

RD = conditions: Homo sapiens, muscle, read-out: GI50 of etoposide (±Compound 1)
Method: as §1, §2

SAOS2 = conditions: Homo sapiens, SAOS-2; SAOS2, bone; read-out: GI50 of etoposide (±Compound 1)
Method: as §1, §2

A431 = conditions: Homo sapiens, A-431; A431, skin; read-out: GI50 of etoposide (±Compound 1)
Method: as §1, §2

EFO21 = conditions: Homo sapiens, EFO-21; EFO21, ovary; read-out: GI50 of etoposide (±Compound 1)
Method: as §1, §2

ACHN = conditions: Homo sapiens, kidney, read-out: GI50 of etoposide (±Compound 1)
Method: as §1, §2

LOVO = conditions: Homo sapiens, colon, read-out: GI50 of etoposide (±Compound 1)
Method: as §1, §2

JEG3 = conditions: Homo sapiens, JEG-3; JEG3, placenta; read-out: GI50 of etoposide (±Compound 1)
Method: as §1, §2

A2780 = conditions: Homo sapiens; A2780, ovary; read-out: GI50 of etoposide (±Compound 1)
Method: as §1, §2

15M15C3 = conditions: 15M15C3, bladder; read-out: GI50 of etoposide (±Compound 1)
Method: as §1, §2

IMR90 = conditions: Homo sapiens, IMR-90; IMR90, lung; read-out: GI50 of etoposide (±Compound 1)
Method: as §1, §2

DU145 = conditions: Homo sapiens, DU-145; DU145, prostate; read-out: GI50 of etoposide (±Compound 1)
Method: as §1, §2

786O = conditions: Homo sapiens, 786-0, kidney, read-out: GI50 of etoposide (±Compound 1)
Method: as §1, §2

HEK293 = conditions: Homo sapiens; HEK293, kidney; read-out: GI50 of etoposide (±Compound 1)
Method: as §1, §2

COc1cc([C@@H]2c3cc4c(cc3[C@@H](O[C@@H]3O[C@@H]5CO[C@@H](C)O[C@H]5[C@H](O)[C@H]3O)[C@H]3COC(=O)[C@H]23)OCO4)cc(OC)c1O [Etoposide]
GI50 (NCIH82): 1150 nM | GI50 (MDAMB468): 1170 nM | GI50 (PC3): 5.24 µM | GI50 (SU-DHL-6): 665 nM | GI50 (ASPC1): > 10 µM | GI50 (SKLMS1): 1640 nM | GI50 (COLO678): 10.8 µM | GI50 (HT1080): 96 nM | GI50 (15O31): 7.91 µM | GI50 (CALU6): 3.65 µM | GI50 (BXPC3): 7.14 µM | GI50 (HCT116): 770 nM | GI50 (CASKI): 1450 nM | GI50 (NCIH460): 167 nM | GI50 (L-363): 327 nM | GI50 (BT20): 73 nM | GI50 (A375): 378 nM | GI50 (152OS): 1080 nM | GI50 (RD): > 10 µM | GI50 (SAOS2): 1460 nM | GI50 (A431): 1520 nM | GI50 (EFO21): 8.22 µM | GI50 (ACHN): 714 nM | GI50 (LOVO): 606 nM | GI50 (JEG3): 41 nM | GI50 (A2780): 62 nM | GI50 (15M15C3): 604 nM | GI50 (IMR90): 704 nM | GI50 (DU145): 701 nM | GI50 (786O): 928 nM | GI50 (HEK293): 190 nM
